Laboratory results from USRE38257E1, “Piperdine derivatives and hypotensives containing the same” (Ajinomoto Co., Inc., priority 1988, dated 2003).

Tested on: male spontaneously hypertensive rats
Experiment: Decrease in systolic blood pressure in spontaneously hypertensive rats after intravenous bolus injection, indirect (tail-cuff) method
Format: in vivo, rat
Conditions: for Decrease in systolic blood pressure (mmHg) time after administration (hour) 0.5: 0.5 hour after administration; for Decrease in systolic blood pressure (mmHg) time after administration (hour) 4: 4 hours after administration
Procedure: As test animals, four male spontaneously hypertensive rats (weight 400 to 440 g) that were sufficiently adapted for feeding and in which hypertension was confirmed were used.
Physiological saline aqueous solution containing 2.5% Nicolle and 2.5% ethanol of sample was intravenously administered by bolus injection at a dose of 1 ml per 1 kg of body weight. Systolic blood pressure after administration was measured by the indirect (tail-cuff) method.

Structure (SMILES) | Decrease in systolic blood pressure (mmHg) time after administration (hour) 0.5 (dose 10 mg/kg i.v. bolus) | Decrease in systolic blood pressure (mmHg) time after administration (hour) 4 (dose 10 mg/kg i.v. bolus) | Decrease in systolic blood pressure (mmHg) time after administration (hour) 0.5 (dose 3 mg/kg i.v. bolus) | Decrease in systolic blood pressure (mmHg) time after administration (hour) 4 (dose 3 mg/kg i.v. bolus)
COc1cccc(CCCN2CCC(=C3c4ccccc4C=Cc4ccccc43)CC2)c1OC.Cl [Example 286, 3-(4-(5H-Dibenzo[a,d]cyclohepten-5-ylidene)-1-piperidinyl)-1-(2,3-dimethoxyphenyl)propane hydrochloride] | −134 mmHg | −40 mmHg |  | 
COc1cc2c(cc1OC)CC(CN1CCC(=C3c4ccccc4C=Cc4ccccc43)CC1)C2.Cl [Example 287, 2-(4-(5H-Dibenzo[a,d]cyclohepten-5-ylidene)-1-piperidinyl)methyl-5′,6′-dimethoxyindan hydrochloride] | −83 mmHg | −16 mmHg |  | 
C1=Cc2ccccc2C(=C2CCN(CCCc3ccncc3)CC2)c2ccccc21.Cl.Cl [Example 289, 3-(4-(5H-Dibenzo[a,d]cyclohepten-5-ylidene)-1-piperidinyl)-1-(4-pyridyl)propane dihydrochloride] |  |  | −20 mmHg | 10 mmHg
Cl.O=C(NCCN1CCCCC1=C1c2ccccc2C=Cc2ccccc21)c1cccc([N+](=O)[O-])c1 [Example 290, N-(2-(5H-Dibenzo[a,d]cyclohepten-5-ylidene)-1-piperidinyl)ethyl-3-nitrobenzamide hydrochloride] |  |  | −15 mmHg | 15 mmHg
Cl.O=C(NCCN1CCCCC1=C1c2ccccc2C=Cc2ccccc21)c1ccccc1[N+](=O)[O-] [Example 291, N-(2-(5H-Dibenzo[a,d]cyclohepten-5-ylidene)-1-piperidinyl)ethyl-2-nitrobenzamide hydrochloride] |  |  | −8 mmHg | 15 mmHg
COc1ccc(C(=O)NCCN2CCCCC2=C2c3ccccc3C=Cc3ccccc32)c(OC)c1.Cl [Example 292, N-(2-(5H-Dibenzo[a,d]cyclohepten-5-ylidene)-1-piperidinyl)ethyl-2,4-dimethoxybenzamide hydrochloride] |  |  | −31 mmHg | 3 mmHg
C1=Cc2ccccc2C(=C2CCN(CCCCc3ccc[nH]3)CC2)c2ccccc21.Cl [Example 293, 4-(4-(5H-Dibenzo[a,d]cyclohepten-5-ylidene)-1-piperidinyl)-1-(2-pyrolle)-1-butane hydrochloride] | −122 mmHg | 4 mmHg |  | 
CC(=O)N1CCCCC1CCCN1CCC(=C2c3ccccc3C=Cc3ccccc32)CC1.Cl (stereo not shown) [Example 294, 1-(N-Acetyl-2-piperidinyl)-3-(4-(5H-Dibenzo[a,d]cyclohepten-5-ylidene)-1-piperidinyl)propane hydrochloride] |  |  | −17 mmHg | 7 mmHg
CN1CCCC(CCCCN2CCC(=C3c4ccccc4C=Cc4ccccc43)CC2)C1.Cl.Cl (stereo not shown) [Example 295, 4-(4-(5H-Dibenzo[a,d]cyclohepten-5-ylidene)-1-piperidinyl)-1-(N-methyl-3-piperidinyl)butane dihydrochloride] |  |  | −36 mmHg | 1 mmHg
Cl.OC1CCC(CCCCN2CCC(=C3c4ccccc4C=Cc4ccccc43)CC2)CC1 (stereo not shown) [Example 296, 1-(1-(4-Hydroxy)cyclohexyl)-4-(4-(5H-dibenzo[a,d]cyclohepten-5-ylidene)-1-piperidinyl)butane hydrochloride] | −109 mmHg | −14 mmHg |  | 
Cl.N#CC1CCC(CCCCN2CCC(=C3c4ccccc4C=Cc4ccccc43)CC2)CC1 (stereo not shown) [Example 297, 1-(1-(4-Cyano)cyclohexyl)-4-(4-(5H-Dibenzo[a,d]cyclohepten-5-ylidene)-1-piperidinyl)butane hydrochloride] | −129 mmHg | −57 mmHg |  | 
COc1ccccc1CCCN1CCC(=C2c3ccccc3C=Cc3ccccc32)CC1.Cl [Example 298, 3-(4-(5H-Dibenzo[a,d]cyclohepten-5-ylidene)-1-piperidinyl)-1-(2-methoxyphenyl)propane hydrochloride] | −111 mmHg | −31 mmHg |  | 
COC1CCCC(CCCCN2CCC(=C3c4ccccc4C=Cc4ccccc43)CC2)C1.Cl (stereo not shown) [Example 299, 1-(1-(3-Methoxy)cyclohexyl)-4-(4-(5H-dibenzo[a,d]cyclohepten-5-ylidene)-1-piperidinyl)butane hydrochloride] | −134 mmHg | −45 mmHg |  | 
Cl.OC1CCCC(CCCCN2CCC(=C3c4ccccc4C=Cc4ccccc43)CC2)C1 (stereo not shown) [Example 300, 1-(1-(3-Hydroxyoxy)cyclohexyl)-4-(4-(5H-dibenzo[a,d]cyclohepten-5-ylidene)-1-piperidinyl)butane hydrochloride] | −97 mmHg | −22 mmHg |  | 
Cl.O=C1CCCC(CCCCN2CCC(=C3c4ccccc4C=Cc4ccccc43)CC2)C1 (stereo not shown) [Example 301, 3-(4-(4-(5H-Dibenzo[a,d]cyclohepten-5-ylidene)-1-piperidinyl)-1-butyl)cyclohexanoe hydrochloride] | −100 mmHg | −12 mmHg |  | 
Cl.O=[N+]([O-])c1ccccc1C=CCN1CCC(=C2c3ccccc3C=Cc3ccccc32)CC1 [Example 302, 4-(5H-Dibenzo[a,d]cyclohepten-5-ylidene)-1-(2-nitrocinnamyl)piperidinyl hydrochloride] | −83 mmHg | −41 mmHg |  | 
Cl.Nc1ccccc1C=CCN1CCC(=C2c3ccccc3C=Cc3ccccc32)CC1 [Example 303, 1-(2-Aminocinnamyl)-4-(5H-dibenzo[a,d]cyclohepten-5-ylidene)-1-piperidine hydrochloride] |  |  | −90 mmHg | −19 mmHg
CC(=O)Nc1ccccc1C=CCN1CCC(=C2c3ccccc3C=Cc3ccccc32)CC1.Cl [Example 304, 1-(2-Acetylaminocinnamyl)-4-(5H-dibenzo[a,d]cyclohepten-5-ylidene)-1-piperidine hydrochloride] | −49 mmHg | −5 mmHg |  | 
C1=Cc2ccccc2C(=C2CCN(CCCCC3CCOCC3)CC2)c2ccccc21.Cl [Example 305, 4-(4-(4-(5H-Dibenzo[a,d]cyclohepten-5-ylidene)-1-piperidinyl)-1-butyl)tetrahydropyran hydrochloride] | −95 mmHg | −9 mmHg |  | 
Cl.O=[N+]([O-])c1cccc(C=CCN2CCC(=C3c4ccccc4C=Cc4ccccc43)CC2)c1 [Example 306, 4-(5H-Dibenzo[a,d]cyclohepten-5-ylidene)-1-(3-nitrocinnamyl)piperidine hydrochloride] | −138 mmHg | −37 mmHg |  | 
C1=Cc2ccccc2C(=C2CCN(CCCC3CCCCN3)CC2)c2ccccc21.Cl.Cl (stereo not shown) [Example 307, 3-(4-(5H-Dibenzo[a,d]cyclohepten-5-ylidene)-1-piperidinyl)-1-(2-piperidinyl)propane dihydrochloride] | −62 mmHg | −20 mmHg |  | 
CC(=O)N1CCC(CCCN2CCC(=C3c4ccccc4C=Cc4ccccc43)CC2)CC1.Cl [Example 308, 1-(N-acetyl-4-piperidinyl)-3-(4-(5H-dibenzo[a,d]cyclohepten-5-ylidene)-1-piperidinyl)propane hydrochloride] |  |  | −27 mmHg | −5 mmHg
C1=Cc2ccccc2C(=C2CCN(CCC3Cc4ccccc4C3)CC2)c2ccccc21.Cl [Example 310, 2-(2-(4-(5H-Dibenzo[a,d]cyclohepten-5-ylidene)-1-piperidinyl)-1-ethyl)indane hydrochloride] | −90 mmHg | −18 mmHg |  | 
CCOC(=O)N1CCCC(CCCCN2CCC(=C3c4ccccc4C=Cc4ccccc43)CC2)C1.Cl (stereo not shown) [Example 312, 4-(4-(5H-Dibenzo[a,d]cyclohepten-5-ylidene)-1-piperidinyl)-1-(N-ethoxycarbonyl-3-piperidinyl)butane hydrochloride] | −115 mmHg | −11 mmHg |  | 
COC(=O)C1(CCCCCN2CCC(=C3c4ccccc4C=Cc4ccccc43)CC2)CCCCC1.Cl [Example 313, 1-(5-(4-(5H-Dibenzo[a,d]cyclohepten-5-ylidene)-1-piperidinyl)-1-pentyl)-1-methoxycarbonylcyclohexane hydrochloride] | −154 mmHg | −85 mmHg |  | 
COC(=O)C1(CCCN2CCC(=C3c4ccccc4C=Cc4ccccc43)CC2)CCCCC1.Cl [Example 314, 1-(3-(4-(5H-Dibenzo[a,d]cyclohepten-5-ylidene)-1-piperidinyl)-1-propyl)-1-methoxycarbonylcyclohexane hydrochloride] | −61 mmHg | −11 mmHg |  | 
